# From patent US7157452B2, “Substituted 4,9-dihydrocyclopenta{imn}phenanthridine-5-ones derivatives thereof and their uses” (MGI GP, Inc., priority 2001, dated 2007)
# Values joined by “and” are separate entries in the source; they are usually repeats but may differ in a detail not shown here. Equal entries are not always repeated.
# Experiments:
# [1] = system: rabbits; details: cited from earlier work
# [2] = system: Swiss albino mice; assay: Gout model: MSU crystal-induced neutrophil recruitment (peritonitis); type: in vivo
# Procedure: Male outbread Swiss albino mice (20–22 g body weight) were purchased from Banton and Kingsman (T.O. strain; Hull, Humberside) and maintained on a standard chow pellet diet with tap water ad libitum and a 12:00 h light dark cycle. All animals were housed for 1 week prior to experimentation to allow body weight to reach 23–30 g.
# 1.11b-dihydrobenzopyrano[4,3,2-de]isoquinolin-1-one was dissolved in 100% DMSO at room temperature at a concentration of 45 mg in 2 ml. The compound was then injected into the peritoneal cavity, so as each mouse received a single dose corresponding to 45 mg/2 ml/kg (e.g. 60 μl for a mouse of 30 g). Control mice received DMSO at 2 ml/kg i.p. A third group of mice which were left untreated were added to control for potential effects of the vehicle. The study involved therefore, the following three groups: group A, untreated mice, n=6, group B, DMSO-treated mice, n=8, and group C, mice treated with 1.1 lb-dihydrobenzopyrano[4,3,2-de]isoquinolin-1-one, n=8
# MSU crystal-induced neutrophil recruitment was tested as follows. In all cases, mice were treated 1 h after the treatment noted above, with MSU crystals. A homogenous suspension of MSU crystals was obtained by a 30 min rotation. Peritonitis was induced by injection of 3 mg MSU crystals in 0.5 ml PBS (0.1 M, pH 7.4), and the recruitment of neutrophils into the cavity evaluated at the 6 h time point (Gerting et al., 1997, J. Pharmacol. Exp. Ther. 233: 123–130). Animals were then euthanised by CO2 exposure and the peritoneal cavity washed with 3 ml of PBS supplemented with 3 mM EDTA and 25 U/ml heparin.
# An aliquot (100 μl) of the lavage fluid was then diluted 1:10 in Turk's solution (0.01% crystal violet in 3% acetic acid). The samples were then vortexed and 10 μl of the stained cell solution were placed in a Neubauer haematocymometer and neutrophils numbers counted using a light microscope (Olympus B061). […]
# Data are shown for single mice, and also shown as mean±S.E. of (n) mice per group. Statistical differences were determined by ANOVA, plus Bonferroni test. […]
# [3] = system: male Long-Evans rats; assay: Focal cerebral ischemia (right distal MCA cauterization with temporary bilateral CCA occlusion); type: in vivo; details: 24 h, mean±SD
# Procedure: Focal cerebral ischemia is produced by cauterization of the right distal MCA (middle cerebral artery) with bilateral temporary common carotid artery occlusion in male Long-Evans rats for 90 minutes. All procedures performed on the animals are approved by the University Institutional Animal Care and Use Committee of the University of Pennsylvania. A total of 42 rats (weights: 230–340 g) obtained from Charles River were used in this study. The animals fasted overnight with free access to water prior to the surgical procedure.
# Two hours prior to MCA occlusion, varying amounts (control, n=14; 5 mg/kg, n=7; 10 mg/kg, n=7; 20 mg/kg, n=7; and 40 mg/kg, n=7) of the compound, 3,4-dihydro-5-[4-(1-piperidinyl)-butoxy]-1(2H)-isoquinolinone (“DPQ”) were dissolved in dimethyl sulfoxide (DMSO) using a sonicator. A volume of 1.28 ml/kg of the resulting solution was injected intraperitoneally into […].
# The rats were then anesthetized with halothane (4% for induction and 0.8%–1.2% for the surgical procedure) in a mixture of 70% nitrous oxide and 30% oxygen. The body temperature was monitored by a rectal probe and maintained at 37.5±0.5° C. with a heating blanket regulated by a homeothermic blanket control unit (Harvard Apparatus Limited, Kent, U.K.). A catheter (PE-50) was placed into the tail artery, and arterial pressure was continuously monitored and recorded on a Grass polygraph recorder (Model 7D, Grass Instruments, Quincy, Mass.). Samples for blood gas analysis (arterial pH, PaO2 and PaCO2) were also talcen from the tail artery catheter and measure with a blood gas analyzer (ABL 30, Radiometer, Copenhagen, Denmark). Arterial blood samples were obtained 30 minutes after MCA occlusion.
# The head of the animal was positioned in a stereotaxic frame, and a right parietal incision between the right lateral canthus and the external auditory meatus was made. Using a dental drill constantly cooled with saline, a 3 mm burr hole was prepared over the cortex supplied by the right MCA, 4 mm lateral to the sagittal suture and 5 mm caudal to the coronal suture. The dura mater and a thin inner bone layer were kept, care being taken to position the probe over a tissue area devoid of large blood vessels. The flow probe (tip diameter of 1 mm fiber separation of 0.23 mm) was lowered to the bottom of the cranial burr hole using a micromanipulator. The probe was held stationary by a probe holder secured to the skull with dental cement. The microvascular blood flow in the right parietal cortex was continuously monitored with a laser Doppler flowmeter (FloLab, Moor, Devon, U.K., and Periflux 4001, Perimed, Stockholm, Sweden). […]
# [4] = system: PARP; details: read-out: IC50 for inhibiting PARP; reported by Suto et al.; cited from earlier work
structure (smiles),measurement,setting,value
"Oc1cccc2c(O)nccc12 [1,5-dihydroxyisoquinoline]",reduction in infarct size,[1]; single injection 1 mg/kg,38–42%
"O=C1N=Cc2cccc3c2C1c1ccccc1O3 (stereo not shown) [1,11b-dihydrobenzopyrano[4,3,2-de]isoquinolin-1-one]",inhibition of cell influx vs. the vehicle group,"[2]; 45 mg/kg i.p., MSU crystals, 6 h",55%
same,Neutrophil Numbers (single mice),"[2]; group C, 45 mg/kg i.p. 1 h prior to 3 mg MSU crystals, peritoneal lavage at 6 h, one value per mouse, 45 mg/kg",2.4 10^6 per mouse (2×) and 3.0 10^6 per mouse (2×) and 2.7 10^6 per mouse and 2.1 10^6 per mouse (2×) and 5.1 10^6 per mouse
same,"Neutrophils (10^6 per mouse), mean ± S.E.","[2]; group C, 45 mg/kg i.p., MSU crystals (3 mg), 6 h, n=8, P<0.05 vs. vehicle group B (6.30 ± 0.33)",2.85 ± 0.34 (8)* 10^6 per mouse
NC(=O)c1cccc(N)c1 [3-aminobenzamide],reduction in infarct size in the heart,"[1]; single injection 10 mg/kg, one minute before occlusion or one minute before reperfusion",32–42%
"O=C1NCCc2c(OCCCCN3CCCCC3)cccc21 [DPQ, 3,4-dihydro-5-[4-(1-piperidinyl)-butoxy]-1(2H)-isoquinolinone]",damaged volume (infarct volume),"[3]; 5 mg/kg i.p. 2 h before and 2 h after MCA occlusion, control 165.2±34.0, p<0.001",106.7±23.2 mm^3
same,damaged volume (infarct volume),"[3]; 10 mg/kg i.p. 2 h before and 2 h after MCA occlusion, control 165.2±34.0, p<0.001",76.4±16.3 mm^3
same,damaged volume (infarct volume),"[3]; 20 mg/kg i.p. 2 h before and 2 h after MCA occlusion, control 165.2±34.0, p<0.01",110.2±42.0 mm^3
same,damaged volume (infarct volume),"[3]; 40 mg/kg i.p. 2 h before and 2 h after MCA occlusion, no significant difference from control 165.2±34.0",135.6±44.8 mm^3
same,IC50,[4],40 nM
